Test results published in ChEMBL document CHEMBL4152386, “Discovery of a Novel Inhaled PI3Kδ Inhibitor for the Treatment of Respiratory Diseases” (J Med Chem, 2018).
In brackets after ≈: the same amount, converted by molar mass.

Legend:
[1] = Cmax in Wistar rat lung at 0.3 mg/kg, it administered as suspension; assay type: ADME, organism-based; design: dose 0.3 mg/kg; details: inhaled or intranasal
[2] = Apparent permeability of the compound at 20 uM by PAMPA assay; assay type: ADME
[3] = Drug metabolism in human liver microsomes assessed as disappearance of parent compound at 5 uM after 30 mins in presence of NADPH by UPLC-MS/MS analysis; assay type: ADME, microsome; details: read-out: Drug metabolism
PI3K p110 beta/p85 alpha = PI3K p110 beta/p85 alpha (Homo sapiens, UniProt P42338)
Description: Inhibition of recombinant human N-terminal His6-tagged full length p110beta/recombinant human full length p85alpha using PIP2 as substrate preincubated for 30 mins followed by substrate addition and HTRF assay

[4] = AUC in Wistar rat lung at 0.3 mg/kg, it administered as suspension; assay type: ADME, organism-based; details: in vivo, inhaled_or_intranasal
[5] = Cmax in Wistar rat lung at 0.015 mg/kg, it administered as solution; assay type: ADME, organism-based; design: dose 0.015 mg/kg; details: inhaled or intranasal
[6] = Drug metabolism in human liver microsomes assessed as disappearance of parent compound at 5 uM preincubated for 3 mins followed UDPG addition and measured after 120 mins by UPLC-MS/MS analysis; assay type: ADME, microsome; details: read-out: Drug metabolism
[7] = Volume of distribution at steady state in Wistar rat at 1 mg/kg, iv; assay type: ADME, organism-based; details: in vivo, read-out: Vdss
[8] = Drug metabolism in rat liver microsomes assessed as disappearance of parent compound at 5 uM after 30 mins in presence of NADPH by UPLC-MS/MS analysis; assay type: ADME, microsome; details: read-out: Drug metabolism
[9] = AUC in Wistar rat at 1 mg/kg, iv; assay type: ADME, organism-based; details: in vivo
[10] = molecular target: Phosphatidylinositol 4,5-bisphosphate 3-kinase catalytic subunit gamma isoform (Homo sapiens, UniProt P48736); assay: Inhibition of recombinant human N-terminal His6-tagged full length p110gamma using PIP2 as substrate preincubated for 30 mins followed by substrate addition by HTRF assay
[11] = Oral bioavailability in Wistar rat at 1 mg/kg; assay type: ADME, organism-based; details: in vivo
[12] = Half life in Wistar rat lung at 0.3 mg/kg, it administered as suspension; assay type: ADME, organism-based; details: inhaled or intranasal
[13] = Thermodynamic aqueous solubility of the compound at pH 7.4; assay type: physicochemical; details: buffer, read-out: Therm_solubility
[14] = Clearance in Wistar rat at 1 mg/kg, iv; assay type: ADME, organism-based; details: in vivo
[15] = AUC in Wistar rat lung at 0.015 mg/kg, it administered as solution; assay type: ADME, organism-based; details: in vivo, inhaled_or_intranasal
[16] = Ratio of AUC in lung to plasma of Wistar rat at 0.015 mg/kg, it administered as solution; assay type: ADME, organism-based
[17] = Cmax in Wistar rat at 1 mg/kg, iv; assay type: ADME, organism-based; design: dose 1 mg/kg, route intravenous; details: in vivo
[18] = Cmax in Wistar rat plasma at 0.015 mg/kg, it administered as solution; assay type: ADME, organism-based; design: dose 0.015 mg/kg; details: inhaled or intranasal
[19] = Half life in Wistar rat plasma at 0.015 mg/kg, it administered as solution; assay type: ADME, organism-based; details: inhaled or intranasal
[20] = AUC in Wistar rat plasma at 0.3 mg/kg, it administered as suspension; assay type: ADME, organism-based; details: inhaled or intranasal
Rattus norvegicus [21] = assay: (§1) Anti-inflammatory activity in Brown Norway rat model of ovalbumin-induced inflammation assessed inhibition of neutrophil infiltration in bronchoalveolar lavage at 1 mg/kg, it administered 1 hr before ovalbumin aerosol challenge and measured 24 hrs post challenge by hematology analysis relative to control; assay type: functional; details: inhaled or nasal
[22] = AUC in Wistar rat plasma at 0.015 mg/kg, it administered as solution; assay type: ADME, organism-based; details: inhaled or intranasal
[23] = Ratio of AUC in lung to plasma of Wistar rat at 0.3 mg/kg, it administered as suspension; assay type: ADME, organism-based
[24] = molecular target: PI3-kinase p110-alpha/p85-alpha (Homo sapiens, UniProt P42336)
Description: Inhibition of recombinant human N-terminal His6-tagged full length p110alpha/recombinant human full length p85alpha using PIP2 as substrate preincubated for 30 mins followed by substrate addition by HTRF assay

[25] = molecular target: PI3-kinase p110-delta/p85-alpha (Homo sapiens, UniProt O00329)
Description: Inhibition of recombinant human N-terminal His-tagged full length p110delta/recombinant human full length p85alpha using PIP2 as substrate preincubated for 30 mins followed by substrate addition by HTRF assay

[26] = Half life in Wistar rat plasma at 0.3 mg/kg, it administered as suspension; assay type: ADME, organism-based; details: inhaled or intranasal
[27] = Drug metabolism in rat liver microsomes assessed as disappearance of parent compound at 5 uM preincubated for 3 mins followed UDPG addition and measured after 120 mins by UPLC-MS/MS analysis; assay type: ADME, microsome; details: read-out: Drug metabolism
[28] = Half life in Wistar rat lung at 0.015 mg/kg, it administered as solution; assay type: ADME, organism-based; details: inhaled or intranasal
[29] = Half life in Wistar rat at 1 mg/kg, iv; assay type: ADME, organism-based; details: in vivo
[30] = Protein binding in rat plasma at 1 uM by equilibrium dialysis; assay type: ADME, cell-free; details: read-out: PPB (converted)
[31] = molecular target: T1, Phosphatidylinositol 4,5-bisphosphate 3-kinase catalytic subunit delta isoform (Homo sapiens, UniProt O00329); assay: Inhibition of PI3Kdelta in human THP-1 cells assessed as reduction in M-CSF-stimulated AKT phosphorylation at Thr308 preincubated for 30 mins followed by M-CSF addition for 3 mins by ELISA; assay type: cell-based
T1 sequence (O00329 whole entry): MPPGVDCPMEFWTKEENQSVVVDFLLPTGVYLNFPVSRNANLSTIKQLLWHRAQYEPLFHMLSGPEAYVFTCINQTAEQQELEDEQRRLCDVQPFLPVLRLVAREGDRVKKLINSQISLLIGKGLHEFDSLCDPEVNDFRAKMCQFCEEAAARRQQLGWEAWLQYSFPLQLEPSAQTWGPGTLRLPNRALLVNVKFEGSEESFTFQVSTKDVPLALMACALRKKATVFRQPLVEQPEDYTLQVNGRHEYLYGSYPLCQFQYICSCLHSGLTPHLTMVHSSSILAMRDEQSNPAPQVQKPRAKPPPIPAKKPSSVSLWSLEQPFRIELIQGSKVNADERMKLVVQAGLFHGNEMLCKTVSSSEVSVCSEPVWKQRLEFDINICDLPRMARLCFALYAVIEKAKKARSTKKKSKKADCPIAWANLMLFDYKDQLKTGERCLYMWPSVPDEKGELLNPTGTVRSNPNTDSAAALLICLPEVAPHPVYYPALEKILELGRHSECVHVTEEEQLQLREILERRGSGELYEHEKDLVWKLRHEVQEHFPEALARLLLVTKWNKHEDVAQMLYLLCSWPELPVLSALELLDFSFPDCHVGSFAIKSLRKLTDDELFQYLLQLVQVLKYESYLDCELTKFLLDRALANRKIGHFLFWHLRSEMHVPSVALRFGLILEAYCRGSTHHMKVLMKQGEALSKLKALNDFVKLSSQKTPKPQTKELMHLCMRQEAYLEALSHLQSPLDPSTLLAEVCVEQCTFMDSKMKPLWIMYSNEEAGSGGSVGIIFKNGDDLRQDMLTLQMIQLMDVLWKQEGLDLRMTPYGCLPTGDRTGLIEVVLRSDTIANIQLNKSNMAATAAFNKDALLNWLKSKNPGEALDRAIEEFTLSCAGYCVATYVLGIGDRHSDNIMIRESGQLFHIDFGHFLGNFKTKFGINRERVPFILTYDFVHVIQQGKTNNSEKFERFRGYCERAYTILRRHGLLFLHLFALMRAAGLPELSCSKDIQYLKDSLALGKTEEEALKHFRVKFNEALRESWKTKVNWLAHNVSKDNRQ

Rattus norvegicus [32] = assay: as §1, with “of neutrophils” for “of neutrophil”, “at 0.1” for “at 1”; assay type: functional; details: inhaled or nasal
[33] = Cmax in Wistar rat plasma at 0.3 mg/kg, it administered as suspension; assay type: ADME, organism-based; design: dose 0.3 mg/kg; details: inhaled or intranasal
Rattus norvegicus [34] = assay: as §1, with “of eosinophil” for “of neutrophil”, “at 0.3” for “at 1”; assay type: functional; details: inhaled or nasal
Rattus norvegicus [35] = assay: as §1, with “of eosinophil” for “of neutrophil”, “at 0.1” for “at 1”; assay type: functional; details: inhaled or nasal
Rattus norvegicus [36] = assay: fCmax in Brown Norway rat model of ovalbumin-induced inflammation assessed inhibition of eosinophil infiltration in bronchoalveolar lavage at 0.3 mg/kg, it administered 1 hr before ovalbumin aerosol challenge and measured 24 hrs post challenge by hematology analysis relative to control; assay type: organism-based; details: in vivo, inhaled_or_intranasal
[37] = molecular target: Voltage-gated inwardly rectifying potassium channel KCNH2 (Homo sapiens, UniProt Q12809); assay: Inhibition of human ERG up to 10 uM
Rattus norvegicus [38] = assay: as §1, with “at 0.3” for “at 1”; assay type: functional; details: inhaled or nasal
[39] = Wistar, lung and plasma, inhaled or intranasal
[40] = other tissue, inhaled_or_intranasal

Chain of Phosphatidylinositol 4,5-bisphosphate 3-kinase catalytic subunit gamma isoform (P48736 whole entry, canonical isoform): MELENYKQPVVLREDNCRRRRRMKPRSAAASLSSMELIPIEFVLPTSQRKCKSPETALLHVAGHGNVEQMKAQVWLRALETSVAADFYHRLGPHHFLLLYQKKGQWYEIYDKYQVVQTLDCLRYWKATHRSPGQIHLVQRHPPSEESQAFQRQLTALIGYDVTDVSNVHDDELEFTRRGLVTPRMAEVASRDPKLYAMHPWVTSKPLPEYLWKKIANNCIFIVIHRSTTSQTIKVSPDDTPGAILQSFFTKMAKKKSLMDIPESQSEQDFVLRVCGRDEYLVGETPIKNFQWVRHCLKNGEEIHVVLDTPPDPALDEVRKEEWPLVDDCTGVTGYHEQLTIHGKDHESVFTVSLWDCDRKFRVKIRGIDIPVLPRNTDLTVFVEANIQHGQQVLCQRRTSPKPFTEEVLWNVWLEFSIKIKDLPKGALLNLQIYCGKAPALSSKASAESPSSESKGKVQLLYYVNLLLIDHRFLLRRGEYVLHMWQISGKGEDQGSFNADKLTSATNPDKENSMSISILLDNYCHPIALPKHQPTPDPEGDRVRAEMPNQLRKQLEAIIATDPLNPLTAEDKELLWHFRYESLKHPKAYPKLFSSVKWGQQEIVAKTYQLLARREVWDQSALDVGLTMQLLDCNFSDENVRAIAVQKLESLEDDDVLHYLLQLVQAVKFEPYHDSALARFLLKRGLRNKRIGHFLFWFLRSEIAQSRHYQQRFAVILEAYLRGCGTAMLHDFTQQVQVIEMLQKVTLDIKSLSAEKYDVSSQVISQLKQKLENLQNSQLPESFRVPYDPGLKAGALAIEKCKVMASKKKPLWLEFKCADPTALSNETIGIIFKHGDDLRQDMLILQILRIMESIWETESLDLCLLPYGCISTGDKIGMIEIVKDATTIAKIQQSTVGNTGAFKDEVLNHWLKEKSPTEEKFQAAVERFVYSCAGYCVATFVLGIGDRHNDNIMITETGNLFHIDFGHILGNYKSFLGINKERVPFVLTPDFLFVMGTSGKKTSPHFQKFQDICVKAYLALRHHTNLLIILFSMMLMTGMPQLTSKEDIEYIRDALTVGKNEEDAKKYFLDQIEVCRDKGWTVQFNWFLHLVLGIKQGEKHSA
Chain of PI3-kinase p110-alpha/p85-alpha (P27986 whole entry): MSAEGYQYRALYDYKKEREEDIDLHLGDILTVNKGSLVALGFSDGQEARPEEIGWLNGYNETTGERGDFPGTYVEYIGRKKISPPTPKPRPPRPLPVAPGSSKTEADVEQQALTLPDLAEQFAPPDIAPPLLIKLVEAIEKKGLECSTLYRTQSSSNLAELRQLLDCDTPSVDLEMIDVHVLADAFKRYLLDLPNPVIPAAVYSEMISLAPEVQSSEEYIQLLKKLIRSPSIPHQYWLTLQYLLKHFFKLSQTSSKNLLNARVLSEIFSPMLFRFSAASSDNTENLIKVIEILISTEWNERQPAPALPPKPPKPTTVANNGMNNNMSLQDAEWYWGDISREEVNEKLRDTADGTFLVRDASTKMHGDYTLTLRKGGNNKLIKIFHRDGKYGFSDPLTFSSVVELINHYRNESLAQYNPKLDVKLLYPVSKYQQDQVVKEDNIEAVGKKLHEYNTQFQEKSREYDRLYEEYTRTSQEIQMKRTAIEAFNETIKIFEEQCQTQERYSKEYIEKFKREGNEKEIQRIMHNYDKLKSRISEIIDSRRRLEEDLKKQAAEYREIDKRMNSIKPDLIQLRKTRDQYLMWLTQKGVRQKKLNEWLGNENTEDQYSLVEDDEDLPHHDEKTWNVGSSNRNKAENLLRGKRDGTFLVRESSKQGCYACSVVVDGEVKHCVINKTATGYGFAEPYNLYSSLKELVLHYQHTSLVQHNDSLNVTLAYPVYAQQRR
Chain of PI3-kinase p110-alpha/p85-alpha (P42336 whole entry): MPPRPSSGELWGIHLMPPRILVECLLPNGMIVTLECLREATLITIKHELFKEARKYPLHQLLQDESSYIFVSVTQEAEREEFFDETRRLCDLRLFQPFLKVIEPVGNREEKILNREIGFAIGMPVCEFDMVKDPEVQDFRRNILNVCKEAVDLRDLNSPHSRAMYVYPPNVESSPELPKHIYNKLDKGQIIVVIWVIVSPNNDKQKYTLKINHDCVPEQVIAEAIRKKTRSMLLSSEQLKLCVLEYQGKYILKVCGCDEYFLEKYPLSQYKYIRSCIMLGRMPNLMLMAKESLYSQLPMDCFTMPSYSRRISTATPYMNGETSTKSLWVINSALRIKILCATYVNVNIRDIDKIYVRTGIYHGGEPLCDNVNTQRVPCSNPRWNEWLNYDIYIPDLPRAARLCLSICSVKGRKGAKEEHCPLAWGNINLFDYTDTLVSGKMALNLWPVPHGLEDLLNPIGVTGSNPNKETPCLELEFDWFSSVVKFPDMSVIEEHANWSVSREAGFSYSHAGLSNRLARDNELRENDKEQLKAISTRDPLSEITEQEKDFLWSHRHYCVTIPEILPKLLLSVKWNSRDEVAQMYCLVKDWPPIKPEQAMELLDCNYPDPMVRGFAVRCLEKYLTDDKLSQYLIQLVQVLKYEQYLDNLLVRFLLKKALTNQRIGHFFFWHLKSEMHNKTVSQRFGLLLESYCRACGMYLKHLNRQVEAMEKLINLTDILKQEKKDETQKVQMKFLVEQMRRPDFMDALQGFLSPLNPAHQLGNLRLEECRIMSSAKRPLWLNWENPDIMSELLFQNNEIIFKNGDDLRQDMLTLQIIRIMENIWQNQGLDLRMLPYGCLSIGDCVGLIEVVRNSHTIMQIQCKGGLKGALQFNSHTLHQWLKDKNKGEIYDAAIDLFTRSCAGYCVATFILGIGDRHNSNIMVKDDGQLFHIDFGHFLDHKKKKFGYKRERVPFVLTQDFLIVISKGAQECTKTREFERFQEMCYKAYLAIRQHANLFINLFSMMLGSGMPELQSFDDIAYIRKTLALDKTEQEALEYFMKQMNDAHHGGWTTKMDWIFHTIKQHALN
Chain of PI3K p110 beta/p85 alpha (P27986 whole entry): as the sequence (P27986 whole entry) above
Chain of PI3K p110 beta/p85 alpha (P42338 whole entry): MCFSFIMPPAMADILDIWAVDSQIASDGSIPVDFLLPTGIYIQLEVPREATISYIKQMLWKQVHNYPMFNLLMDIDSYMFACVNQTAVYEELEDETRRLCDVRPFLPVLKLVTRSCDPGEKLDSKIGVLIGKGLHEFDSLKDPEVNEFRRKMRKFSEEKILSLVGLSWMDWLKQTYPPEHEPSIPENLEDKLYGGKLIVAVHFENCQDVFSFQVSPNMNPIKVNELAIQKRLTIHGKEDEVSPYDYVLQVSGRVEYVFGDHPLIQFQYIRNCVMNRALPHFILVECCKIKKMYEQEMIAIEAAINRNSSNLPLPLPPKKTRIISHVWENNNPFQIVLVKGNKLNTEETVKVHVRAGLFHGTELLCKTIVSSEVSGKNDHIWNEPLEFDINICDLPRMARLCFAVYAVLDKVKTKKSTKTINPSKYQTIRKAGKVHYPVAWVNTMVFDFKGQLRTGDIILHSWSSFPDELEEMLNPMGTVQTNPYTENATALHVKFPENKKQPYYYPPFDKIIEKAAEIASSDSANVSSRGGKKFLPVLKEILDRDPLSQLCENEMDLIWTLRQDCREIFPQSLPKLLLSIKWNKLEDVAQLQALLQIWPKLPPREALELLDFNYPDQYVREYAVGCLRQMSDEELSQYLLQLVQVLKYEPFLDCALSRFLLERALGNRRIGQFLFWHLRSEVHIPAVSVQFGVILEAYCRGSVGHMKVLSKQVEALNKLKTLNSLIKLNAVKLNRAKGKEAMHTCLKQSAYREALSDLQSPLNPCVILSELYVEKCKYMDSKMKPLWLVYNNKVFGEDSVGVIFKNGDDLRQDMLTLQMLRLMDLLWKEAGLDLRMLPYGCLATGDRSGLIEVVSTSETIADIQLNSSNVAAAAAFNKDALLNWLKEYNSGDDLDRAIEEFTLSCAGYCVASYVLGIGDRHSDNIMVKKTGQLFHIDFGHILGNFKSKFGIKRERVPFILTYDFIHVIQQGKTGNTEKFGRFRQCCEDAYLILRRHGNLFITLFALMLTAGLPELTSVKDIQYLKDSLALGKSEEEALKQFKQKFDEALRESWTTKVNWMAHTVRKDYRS
Chain of PI3-kinase p110-delta/p85-alpha (P27986 whole entry, one chain of several): as the sequence (P27986 whole entry) above

SMILES | Cmax [1] [ng/g] | Papp at 20 µM [2] [×10⁻⁶ cm/s] | metabolised at 0.5 h, 5 µM [3] [%] | IC50 (PI3K p110 beta/p85 alpha) [nM] | AUC [4] [µg·h/g] | Cmax [5] [ng/g] | metabolised at 2 h, 5 µM [6] [%] | Vd [7] [L/kg] | metabolised at 0.5 h, 5 µM [8] [%] | AUC [9] [ng·h/mL] | IC50 [10] [nM] | bioavailability [11] [%] | half-life [12] [h] | solubility thermodynamic [13] [µg/mL] | clearance [14] [mL/min/kg] | AUC [15] [µg·h/g] | Cmax [17] [ng/mL] | Cmax [18] [ng/mL] | half-life [19] [h] | AUC [20] [ng·h/mL] | other results
Cc1ccn2nc([C@H](C)Nc3ncnc(N)c3-c3ccc(O)c(F)c3)n(-c3ccccc3)c(=O)c12 | 18600 | 1.7 | 71 | 87 | 30.6 | 700 | 97 | 5.2 | 44 | 149 | 11 | 13 | 5.7 | 36 (≈ 76.4 µM) | 112 | 0.2 | 236 | 36.3 | 0.7 | 148 | Kp [16, 39]: 31; inhibition in vivo at 1 mg/kg (Rattus norvegicus [21]): 37%; AUC [22]: 6.4 ng·h/mL; Kp [23, 39]: 207; IC50 [24]: 1100 nM; IC50 [25]: 0.5 nM; half-life [26]: 1.1 h; metabolised at 2 h, 5 µM [27]: 96%; half-life [28]: 4.7 h; half-life [29]: 1 h; fraction unbound at 1 µM [30]: 0.054; IC50 [31]: 4.4 nM
Cc1ccn2nc([C@H](C)Nc3ncnc4[nH]cc(-c5cc(NS(C)(=O)=O)cc6[nH]ccc56)c34)n(-c3ccccc3)c(=O)c12 | 73300 | 0.2 | 68 | 10 | 459.6 | 3400 | 30 | 5.2 | 32 | 171 | 36 | 1 | 4.5 | 3 (≈ 5.05 µM) | 96 | 15.5 | 455 | 1.4 | 3.2 | 96.5 | inhibition in vivo at 0.1 mg/kg (Rattus norvegicus [32]): 42%; Cmax [33]: 16400 ng/mL; inhibition in vivo at 0.3 mg/kg (Rattus norvegicus [34]): 55%; inhibition in vivo at 0.1 mg/kg (Rattus norvegicus [35]): 21%; fCmax (Rattus norvegicus [36]): 0.3 nM; inhibition (INH) [37]: Not Active; Ratio [16, 40]: 2925; AUC [22]: 5.3 ng·h/mL; Ratio [23, 40]: 4763; IC50 [24]: 1900 nM; IC50 [25]: 0.5 nM; half-life [26]: 3.2 h; metabolised at 2 h, 5 µM [27]: 10%; half-life [28]: 2.8 h; inhibition in vivo at 0.3 mg/kg (Rattus norvegicus [38]): 77%; half-life [29]: 1.7 h; fraction unbound at 1 µM [30]: 0.011; IC50 [31]: 2.7 nM
